Measured values reported in patent publication US11964969B2, “Crystal forms of thiazole compound and application thereof” (PHAENO THERAPEUTICS CO., LTD, priority 2018, dated 2024).

Experiments:
[1] = Hygroscopicity study by dynamic vapor sorption (DVS); format: physicochemical; conditions: 25° C. and 80% RH
Experimental: Dynamic Vapor Sorption (DVS) Method Used in the Present Disclosure
Instrument model: SMS DVS Advantage dynamic vapor sorption apparatus
Test condition: The sample (10˜15 mg) was taken and put into a DVS sample pan for testing.
The detailed DVS parameters were as follows:
Equilibration: dm/dt=0.01%/min (The shortest time: 10 min, and the longest time: 180 min)
Drying: Dried for 120 min at 0% RH
RH (%) test gradient: 10%
Range of RH (%) test gradient: 0%-90%-0%
The classification of hygroscopicity evaluation was as follows:
Example 4: Study on the Hygroscopicity of the Crystal Form B of the Compound of Formula (II)
SMS DVS Advantage dynamic vapor sorption apparatus
10-15 mg of the crystal form B of the compound of formula (II) was taken and put into a DVS sample pan for testing.

[2] = Evaluation of pharmacokinetics of the compound in mice; format: in vivo; conditions: male, mouse, plasma, Balb/c mice
Experimental: Assay Example 2: Evaluation of Pharmacokinetics of the Compound
Object of the assay: to test the pharmacokinetics of the compound in mice in vivo.
Balb/c mice (male, 18-22 g, 6-8 weeks old, from Shanghai SLAC)
The pharmacokinetic profile of the compound after intravenous injection and oral administration in the rodents was tested by the standard protocol. The candidate compound was formulated into a corresponding solution, and administered through a single intravenous injection (1.0 mg/kg, 5% of DMSO/95% of 20% hydroxypropyl-beta-cyclodextrin) or an intragastric administration (1.0 mg/kg, 0.5% of methylcellulose MC4000). The whole blood sample was collected within 24 hours, and centrifuged at 3000 g for 15 minutes. […] The resulting mixture was centrifuged and the supernatant was taken out, to which an equal volume of water was added and centrifuged. The supernatant was taken out, and injected as a sample to quantitatively analyze the plasma drug concentration by LC-MS/MS analysis method. The pharmacokinetic parameters were calculated, such as peak concentration, peak time, clearance rate, half-life, area under the drug-time curve, bioavailability, etc.

[3] = system: GHSV-UL 46 strain of herpes simplex virus-1 (HSV-1); assay: Assay of cytopathic effect (CPE) of herpes simplex virus-1 in Vero E6 cells; format: cell-based; conditions: Human alphaherpesvirus 1, Vero C1008, 120 h, read-out: HSV-1 Cytopathic Assay EC50
Experimental: Assay Example 1: Assay of Cytopathic Effect of Herpes Simplex Virus-1 (Evaluation In Vitro)
The assay of cytopathic effect (CPE) was used to determine the antiviral activity of the compound against the GHSV-UL 46 strain of herpes simplex virus-1 (HSV-1).
Virus: HSV-1 GHSV-UL46, ATCC #VR-1544
Cell: African green monkey kidney cell, Vero E6, donated by Wuhan Instititute of Virology, Chinese Academy of Sciences.
Cell growth medium: 500 ml of DMEM medium+50 ml of fetal bovine serum+5 ml of double antibody+5 ml of non-essential amino acids.
Medium for the assay of cytopathic effect: 500 ml of DMEM medium+10 ml of fetal bovine serum+5 ml of double antibody+5 ml of non-essential amino acids.
1.4. […]
2.2. […] Each test compound was measured at 8 concentrations in duplicate. […]
3.4. The absorbance value of each well of the cell plate was read with a microplate reader at a wavelength of 450 nm, and 630 nm was used as a reference wavelength. The value of raw data was the absorbance at 450 nm minus the absorbance at 630 nm (raw data=OD450−OD630).
4.1. The antiviral activity of the test compound (% Inhibition) was calculated using the following equation:
[formula] wherein sample is the absorbance value of compound test wells, cell control is the average absorbance value of cell control wells, and virus control is the average absorbance value of virus control wells. […]

Row | Compound | Classification of hygroscopicity [1] | Weight increase by moisture absorption ΔW [1] [%] | bioavailability ([2]; intragastric (oral) administration 1.0 mg/kg, read-out: Bioavailability F) [%] | AUC ([2]; intragastric (oral) administration 1.0 mg/kg, read-out: Concentration integral AUC) [µM·h] | clearance ([2]; single intravenous injection 1.0 mg/kg, read-out: Clearance rate) [L/h/kg] | half-life ([2]; single intravenous injection 1.0 mg/kg, read-out: Half-life T1/2 (converted)) [h] | EC50 [3] [nM]
1 | CS(=O)(=O)O.Cc1nc(N(C)C(=O)[C@@H]2Cc3ccc(-c4ccccn4)cc3C2)sc1S(N)(=O)=O | slightly hygroscopic | 1.158 | – | – | – | – | –
2 | Cc1nc(N(C)C(=O)[C@@H]2Cc3ccc(-c4ccccn4)cc3C2)sc1S(N)(=O)=O [Compound of formula (I)] | – | – | 75 | 24.4 | 0.072 | 6 | 7
